The text below walks through data of patent US20250275537A1, “CARBOXAMIDE APYRASE INHIBITORS” (Texas Crop Science, Inc., priority 2024, published 2025).

In the assay the test system is apyrase. In words: Apyrase inhibition assay (Method 1). It is filed as biochemical. The note with it: inhibitor conc at 1 mM stock, 10 μl per well; 1 hr room temperature; rounded average of at least two assay results. The method, then:
Apyrase inhibitors useful as enhancers of pesticidal activity are assessed using an in vitro assay. The method of Windsor, Bio Techniques 33:1024-1030 (November 2002) was used as follows
96 well plates were used for the assay: (Greiner bio-one: REF-655901-96 well, PS, F-bottom, Clear, Non-binding)
• Reaction Buffer: 60 mM Hepes, 3 mM MgCl2, 3 mM CaCl2 and 3 mM ATP (pH 6.5) • Development Buffer A: 2% aqueous ammonium molybdate • Development Buffer B: 11% ascorbic acid in 37.5% TCA in water • Stop buffer C: 2% trisodium citrate in 2% acetic acid solution in water • Add 100 μl of reaction buffer to each well. • Add 10 μl of DMSO (control) or inhibitor/compound or compounds such as N1915 or orthovanadate to each well. (use inhibitor conc at 1 mM; orthovanadate at 2 mM and N1915 at 1 mM) • Add 10 μl of apyrase (concentration based on optimization —Dilute 1 U/μl enzyme to different concentrations such as 0.1U, 0.05U, 0.0025, 0.001U, 0.0005U—to find a good range) • Incubate plate at room temperature for 1 hr • Mix development buffer A and B in the ratio of 1:1.5 (just before use). • Add 50 ul of A:B mix in each well (incubate for 2 mins) • Add 50 ul of C in each well • Measure/Read Absorbance of plate @630 nm
Inhibitory data for the apyrase assay described above are provided for selected compounds in Table 3. In Table 3, D indicates inhibition of <10%.
With reference to Table 3, percent inhibition of apyrase is reported as the rounded average of at least two assay results.

Regarding `O=C(Nc1ccc2scnc2c1)c1ccc(C(=O)NC2CC2)cc1` [Compound I-41, N^1-(benzo[d]thiazol-5-yl)-N^4-cyclopropylterephthalamide], the “% Inhibition of Apyrase” value is on record as “D (D indicates inhibition of <10%)”.

Consider `O=C(Nc1cccc([N+](=O)[O-])c1)c1ccccc1C(=O)N1CCCC1` [Compound I-33, N-(3-nitrophenyl)-2-(pyrrolidine-1-carbonyl)benzamide], for which the “% Inhibition of Apyrase” value is reported as “C (C indicates inhibition of from 10% to 20%)”.

Take `Cc1cc2c(cc1NC(=O)c1cccc(C(=O)Nc3ccccc3)c1)OCO2` [Compound I-64, N^1-(6-methylbenzo[d][1,3]dioxol-5-yl)-N^3-phenylisophthalamide]: the “% Inhibition of Apyrase” value is given as “B (B indicates inhibition of from 20% to 30%)”.

In the case of `Nc1ccnc(CNC(=O)c2ccc(C(=O)Nc3ccccc3)cc2)n1` [Compound I-55, N^1-((4-aminopyrimidin-2-yl)methyl)-N^4-phenylterephthalamide], the “% Inhibition of Apyrase” value was “D (D indicates inhibition of <10%)”.

Take `COc1cc(NC(=O)c2ccc(C(=O)Nc3cc(OC)cc(OC)c3)cc2)cc(OC)c1` [Compound I-20, N1,N4-bis(3,5-dimethoxyphenyl)terephthalamide]: the “% Inhibition of Apyrase” value is listed as “C (C indicates inhibition of from 10% to 20%)”.

Turning to `O=C(NCc1ccccc1)c1ccccc1C(=O)NCc1ccccc1` [Compound I-30, N^1,N^2-dibenzylphthalamide], the “% Inhibition of Apyrase” value is listed as “C (C indicates inhibition of from 10% to 20%)”.

As to `O=C(Nc1ccccc1)c1cccc(C(=O)Nc2cccc(-c3nnn[nH]3)c2)c1` [Compound I-29, N^1-(3-(1H-tetrazol-5-yl)phenyl)-N^3-phenylisophthalamide], the “% Inhibition of Apyrase” value is given as “C (C indicates inhibition of from 10% to 20%)”.

Regarding `Cc1cc(C)c(NC(=O)c2ccc(C(=O)Nc3c(C)cc(C)cc3C)cc2)c(C)c1` [Compound I-51, N^1,N^4-dimesitylterephthalamide], the “% Inhibition of Apyrase” value is “D (D indicates inhibition of <10%)”.

As for `O=C(Nc1cccc2c1CNC2=O)c1cccc(C(=O)Nc2cccc3c2CNC3=O)c1` [Compound I-54, N^1,N^3-bis(1-oxoisoindolin-4-yl)isophthalamide], the “% Inhibition of Apyrase” value was “D (D indicates inhibition of <10%)”.

Regarding `O=C(Nc1ccc2c(c1)OCCO2)c1ccc(C(=O)Nc2ccc3c(c2)OCCO3)cc1` [Compound I-6, N^1,N^4-bis(2,3-dihydrobenzo[b][1,4]dioxin-6-yl)terephthalamide], the “% Inhibition of Apyrase” value is “A (A indicates inhibition above 30%)”.

As to `Cc1n[nH]c2cc(NC(=O)c3cccc(C(=O)Nc4ccc5c(C)n[nH]c5c4)c3)ccc12` [Compound I-19, N^1,N^3-bis(3-methyl-1H-indazol-6-yl)isophthalamide], the “% Inhibition of Apyrase” value was “B (B indicates inhibition of from 20% to 30%)”.

`N#Cc1cccc(NC(=O)c2ccc(C(=O)Nc3cccc(C#N)c3)cc2)c1` [Compound I-67, N^1,N^4-bis(3-cyanophenyl)terephthalamide]: the “% Inhibition of Apyrase” value is on record as “A (A indicates inhibition above 30%)”.

As to `CNC(=O)c1cccc(C(=O)Nc2ccc3[nH]c(=O)sc3c2)c1` [Compound I-50, N^1-methyl-N^3-(2-oxo-2,3-dihydrobenzo[d]thiazol-6-yl)isophthalamide], the “% Inhibition of Apyrase” value is recorded as “D (D indicates inhibition of <10%)”.

For the compound `O=C(Nc1ccccc1)c1ccc(C(=O)N[C@@H]2C[C@H]2c2ccccc2)cc1` [Compound I-42, N^1-phenyl-N^4-((1R,2S)-2-phenylcyclopropyl)terephthalamide], the “% Inhibition of Apyrase” value is “D (D indicates inhibition of <10%)”.

`CCOC(=O)c1ccc(NC(=O)c2cccc(C(=O)Nc3ccc(C(=O)OCC)cc3)c2)cc1` [Compound I-7, diethy 1 4,4′-(isophthaloylbis(azanediyl))dibenzoate]: the “% Inhibition of Apyrase” value was “A (A indicates inhibition above 30%)”.

In the case of `COc1ccc(C)cc1NC(=O)c1ccccc1C(=O)N(C)C1CCCCC1` [Compound I-8, N^1-cyclohexyl-N^2-(2-methoxy-5-methylphenyl)-N^1-methylphthalamide], the “% Inhibition of Apyrase” value is “A (A indicates inhibition above 30%)”.

For the compound `Cc1ccc(NC(=O)c2ccc(C(=O)Nc3ccc(C)cc3)cc2)cc1` [Compound I-1, N^1,N^4-di-p-tolylterephthalamide], the “% Inhibition of Apyrase” value is on record as “A (A indicates inhibition above 30%)”.

Take `CN(C)C(=O)c1ccccc1C(=O)Nc1ccc2c(c1)OCCCO2` [Compound I-12, N^1-(3,4-dihydro-2H-benzo[b][1,4]dioxepin-7-yl)-N^2,N^2-dimethylphthalamide]: the “% Inhibition of Apyrase” value is given as “B (B indicates inhibition of from 20% to 30%)”.

In the case of `O=C(Nc1ccccc1)c1ccc(C(=O)Nc2cnn(CC3CCCO3)c2)cc1` (stereo not shown) [Compound I-61, N^1-phenyl-N^4-(1-((tetrahydrofuran-2-yl)methyl)-1H-pyrazol-4-yl)terephthalamide], the “% Inhibition of Apyrase” value is reported as “D (D indicates inhibition of <10%)”.

Consider `O=C(Nc1ccccc1-c1ncc[nH]1)c1ccc(C(=O)NC2CC2)cc1` [Compound I-47, N^1-(2-(1H-imidazol-2-yl)phenyl)-N^4-cyclopropylterephthalamide], for which the “% Inhibition of Apyrase” value is given as “D (D indicates inhibition of <10%)”.

On to `O=C(NCC#Cc1ccccc1)c1ccc(C(=O)Nc2ccccc2)cc1` [Compound I-23, N1-phenyl-N4-(3-phenylprop-2-yn-1-yl)terephthalamide], for which the “% Inhibition of Apyrase” value is “C (C indicates inhibition of from 10% to 20%)”.

For the compound `C#Cc1cccc(NC(=O)c2ccccc2C(=O)N2CCN(C)CC2)c1` [Compound I-58, N-(3-ethynylphenyl)-2-(4-methylpiperazine-1-carbonyl)benzamide], the “% Inhibition of Apyrase” value was “D (D indicates inhibition of <10%)”.

Regarding `CC(NC(=O)c1cccc(C(=O)Nc2ccccc2)c1)C(=O)N1CCS(=O)(=O)CC1` (stereo not shown) [Compound I-32, N^1-(1-(1,1-dioxidothiomorpholino)-1-oxopropan-2-yl)-N^3-phenylisophthalamide], the “% Inhibition of Apyrase” value is on record as “C (C indicates inhibition of from 10% to 20%)”.

In the case of `Cn1nc(Cn2c(=O)c3ccccc3c(=O)n2C)cc1Cl` [Compound I-26, 2-((5-chloro-1-methyl-1H-pyrazol-3-yl)methyl)-3-methyl-2,3-dihydrophthalazine-1,4-dione], the “% Inhibition of Apyrase” value is “C (C indicates inhibition of from 10% to 20%)”.

As to `CN1CCN(C(=O)c2ccccc2C(=O)Nc2ccc(F)cc2)CC1` [Compound I-53, N-(4-fluorophenyl)-2-(4-methylpiperazine-1-carbonyl)benzamide], the “% Inhibition of Apyrase” value is given as “D (D indicates inhibition of <10%)”.

`CCNC(=O)c1cc(NC(=O)c2ccc(C(=O)Nc3ccccc3)cc2)nc2ccccc12` [Compound I-13, N^1-(4-(ethylcarbamoyl)quinolin-2-yl)-N^4-phenylterephthalamide]: the “% Inhibition of Apyrase” value is “B (B indicates inhibition of from 20% to 30%)”.

Turning to `CN(C(=O)c1ccccc1C(=O)Nc1cccc(C(F)(F)F)c1)C1CCCCC1` [Compound I-43, N^1-cyclohexyl-N^1-methyl-N^2-(3-(trifluoromethyl)phenyl)phthalamide], the “% Inhibition of Apyrase” value is “D (D indicates inhibition of <10%)”.

In the case of `O=C(Nc1cccc(N2CCCC2)c1)c1ccc2c(c1)C(=O)NC2=O` [Compound I-10, 1,3-dioxo-N-(3-(pyrrolidin-1-yl)phenyl)isoindoline-5-carboxamide], the “% Inhibition of Apyrase” value is listed as “B (B indicates inhibition of from 20% to 30%)”.

Turning to `Cc1cccc(C)c1NC(=O)c1ccccc1C(=O)N(C)Cc1ccccc1` [Compound I-37, N^1-benzyl-N^2-(2,6-dimethylphenyl)-N1-methylphthalamide], the “% Inhibition of Apyrase” value is listed as “D (D indicates inhibition of <10%)”.

For the compound `O=C(NCc1ncc[nH]1)c1ccc(C(=O)Nc2ccccc2)cc1` [Compound I-48, N^1-((1H-imidazol-2-yl)methyl)-N^4-phenylterephthalamide], the “% Inhibition of Apyrase” value is “D (D indicates inhibition of <10%)”.

Regarding `CC1(C)NC(=O)N(c2cccc(NC(=O)c3cccc(C(=O)Nc4ccccc4)c3)c2)C1=O` [Compound I-11, N^1-(3-(4,4-dimethyl-2,5-dioxoimidazolidin-1-yl)phenyl)-N^3-phenylisophthalamide], the “% Inhibition of Apyrase” value is on record as “B (B indicates inhibition of from 20% to 30%)”.

Turning to `CCc1noc(C)c1Cn1c(=O)c2ccccc2c(=O)n1C` [Compound I-21, 2-((3-ethyl-5-methylisoxazol-4-yl)methyl)-3-methyl-2,3-dihydrophthalazine-1,4-dione], the “% Inhibition of Apyrase” value is “C (C indicates inhibition of from 10% to 20%)”.

As to `CC(C)n1cc2ccc(NC(=O)c3ccc4c(c3)C(=O)NC4=O)cc2n1` [Compound I-24, N-(2-isopropyl-2H-indazol-6-yl)-1,3-dioxoisoindoline-5-carboxamide], the “% Inhibition of Apyrase” value is “C (C indicates inhibition of from 10% to 20%)”.

Consider `CN(C(=O)c1ccccc1C(=O)Nc1ccc2c(c1)OCO2)C1CCCCC1` [Compound I-18, N^1-(benzo[d][1,3]dioxol-5-yl)-N^2-cyclohexyl-N^2-methylphthalamide], for which the “% Inhibition of Apyrase” value is given as “B (B indicates inhibition of from 20% to 30%)”.
